Measurements as given in patent publication US8063018B2, “Bivalent thrombin binding molecules comprising linkers” (National Research Council of Canada, priority 2004, dated 2011).

biological target: thrombin (Homo sapiens, UniProt P00734); experiment: Fibrinogen clotting assay catalyzed by thrombin; assay type: biochemical; conditions: 25 nM inhibitor, 5 and 10 μM SAP-SH2, 25° C.
Protocol: Curves represent OD420 time course after the addition of 0.6 nM thrombin in the presence of (♦) 0 nM; (◯) 0.5 nM; (□) 1 nM; (Δ) 1.5 nM; (⋄) 2.5 nM; (●) 3.75 nM; (▪) 6.25 nM; and (▴) […] of the inhibitor with linker (GS)n and n=2 (SEQ. ID. NO. 50) (a); n=4 (SEQ. ID. NO. 51) (b); n=6 (SEQ. ID. NO. 52) (c); n=8 (SEQ. ID. NO. 53) (d); n=10 (SEQ. ID. NO. 54) (e); and in the presence of (♦) 0 nM; (◯) 1 nM; (□) 2 nM; (Δ) 4 nM; (⋄) 6 nM; (●) 10 nM; (▪) 15 nM; and (▴) 25 nM of the inhibitor with linker (GS)n and n=12 (SEQ. ID. NO. 55) (f); n=14 (SEQ. ID. NO. 56) (g), at 37° C. The onset clotting time was determined as an intersection of the baseline and the extrapolated linear portion of the OD change curve. […] Curves (i) represent OD420 time course in the presence of (A) 0 nM; (◯) 1 nM; (□) 2 nM; (Δ) 4 nM; (⋄) 6 nM; and (●) 15 nM of the inhibitor with linker […] (SEQ. ID. NO. 103), at 37° C. […] represent OD420 time course in the presence of (◯) 0 nM; (□) 2 nM; (Δ) 4 nM; (⋄) 6 nM; (●) 8 nM; (▪) 10 nM; (▴) 12 nM; and (♦) 15 nM; of the inhibitor with linker […] (SEQ. ID. NO. 58) at 25° C. Curves (k) represent OD420 time course in the presence of (◯) 0 nM; (□) 0.5 nM; (Δ) 1 nM; (⋄) 2 nM; (●) 3 nM; (▪) 4 nM; (▴) 5 nM; and (♦) 6 nM; of the inhibitor with linker […] (SEQ. ID. NO. 105) at 37° C. Curves (I) represent OD420 time course in the presence of (◯) 0 nM; (□) 0.25 nM; (Δ) 0.5 nM; (⋄) 1 nM; (●) 1.5 nM; (▪) 2 nM; and (▴) 2.5 nM; of the inhibitor with linker […] (SEQ. ID. NO. 104) at 37° C. Curves (m) represent OD420 time course in the presence of (◯) 0 nM; (□) 2 nM; (Δ) 4 nM; (⋄) 6 nM; (●) 8 nM; (▴) 10 nM; and (A) 12 nM; of the inhibitor with linker […] (SEQ. ID. NO. 106) at 37° C. Curves (n) represent OD420 time course in the presence of (◯) 0 nM; (□) 1 nM; (Δ) 2 nM; (⋄) 3 nM; (●) 4 nM; (▪) 5 nM; (▴) 6 nM; and (♦) 7 nM; of the inhibitor with linker […] (SEQ. ID. NO. 107) at 37° C. Curves (o) represent OD420 time course in the presence of (◯) 0 nM; (□) 4 nM; and (Δ) 8 nM; of the inhibitor with linker GQSHNR (SEQ. ID. NO. 108) at 37° C.
Other experimental conditions were as used for the assays described in FIG. 2.
Clotting assays were carried out by use of the protocols described previously (DiMaio and others, 1990, 21698-21703; Witting and others, 1992, 737-743). The assay employs bovine plasma fibrinogen dissolved at 0.1% in 50 mM Tris-Cl, 100 mM NaCl, 0.1% PEG-8000 at pH 7.6 (i.e. the clotting buffer). Each assay mixture contained a certain concentration of the peptide, and the reaction was started by the addition of human thrombin to a final concentration of 0.6-1.2 nM. Optical absorbance increase at 420 nm caused by fibrin clot formation was measured at 25° C. or 37° C. using the Spectramax plate reader. The onset clotting time was determined as an intersection of the baseline and the extrapolated linear portion of the OD change curve. The concentration of a peptide needed to double the clotting time was defined as IC50 (DiMaio and others, 1990, 21698-21703). Kinetic amidolytic curves were obtained in clotting buffer at 25° C. using eight inhibitor concentrations and three to five concentrations of the chromogenic substrate S-2238 (Chromogenix) (DiMaio and others, 1990, 21698-21703). Inhibition constants were extracted from Lineweaver-Burk equation by using weighted linear regression. Errors in Ki determination were estimated by using Monte-Carlo sampling with 1-3% variance of the experimental points.

For CC[C@H](C)[C@H](NC(=O)[C@@H](NC(=O)[C@H](CC(C)C)NC(=O)[C@H](CO)NC(=O)[C@H](CCCCN)NC(=O)[C@H](CCCNC(=N)N)NC(=O)CNC(=O)[C@H]1CCCCN1C(=O)[C@H](CCCNC(=N)N)NS(=O)(=O)c1ccc(C(C)(C)C)cc1)[C@@H](C)O)C(=O)N[C@@H](Cc1ccc(O)cc1)C(=O)N[C@@H](C)C(=O)N[C@@H](CCC(N)=O)C(=O)N[C@H](C(=O)N[C@@H](CCC(N)=O)C(=O)N[C@@H](CCCCN)C(=O)NCC(=O)N[C@@H](CC(=O)O)C(=O)N[C@@H](Cc1ccccc1)C(=O)N[C@@H](CCC(=O)O)C(=O)N[C@@H](CCC(=O)O)C(=O)N[C@H](C(=O)N1CCC[C@H]1C(=O)N[C@@H](CCC(=O)O)C(=O)N[C@@H](CCC(=O)O)C(=O)N[C@@H](Cc1ccc(O)cc1)C(=O)N[C@@H](CC(C)C)C(=O)N[C@@H](CCC(N)=O)C(=O)O)[C@@H](C)CC)C(C)C [P3291], the “Effect of SAP-SH2 on thrombin inhibition” value was “reversal of thrombin inhibition”.

same assay, conditions: IC50, nM (25° C.), 25° C.; concentration needed to double the clotting time

Compound CC[C@H](C)[C@H](NC(=O)[C@@H](NC(=O)[C@H](CC(C)C)NC(=O)[C@H](CO)NC(=O)[C@H](CCCCN)NC(=O)[C@H](CCCNC(=N)N)NC(=O)CNC(=O)[C@H]1CCCCN1C(=O)[C@H](CCCNC(=N)N)NS(=O)(=O)c1ccc(C(C)(C)C)cc1)[C@@H](C)O)C(=O)N[C@@H](Cc1ccc(O)cc1)C(=O)N[C@@H](C)C(=O)N[C@@H](CCC(N)=O)C(=O)N[C@H](C(=O)N[C@@H](CCC(N)=O)C(=O)N[C@@H](CCCCN)C(=O)NCC(=O)N[C@@H](CC(=O)O)C(=O)N[C@@H](Cc1ccccc1)C(=O)N[C@@H](CCC(=O)O)C(=O)N[C@@H](CCC(=O)O)C(=O)N[C@H](C(=O)N1CCC[C@H]1C(=O)N[C@@H](CCC(=O)O)C(=O)N[C@@H](CCC(=O)O)C(=O)N[C@@H](Cc1ccc(O)cc1)C(=O)N[C@@H](CC(C)C)C(=O)N[C@@H](CCC(N)=O)C(=O)O)[C@@H](C)CC)C(C)C [P3291] has an IC50 of 7 ± 1 nM.

same assay, conditions: IC50, nM (37° C.), 37° C.; concentration needed to double the clotting time

Point of comparison: CC[C@H](C)[C@H](NC(=O)[C@H](CCC(=O)O)NC(=O)[C@H](CCC(=O)O)NC(=O)[C@H](Cc1ccccc1)NC(=O)[C@H](CC(=O)O)NC(=O)CNC(=O)[C@H](CCCNC(=N)N)NC(=O)[C@H](CC(=O)O)NC(=O)[C@H](C)NC(=O)[C@H](CCCNC(=N)N)NC(=O)[C@H](CO)NC(=O)[C@H](CCC(=O)O)NC(=O)[C@H](CCSC)NC(=O)[C@H](Cc1ccc(O)cc1)NC(=O)CNC(=O)[C@H]1CCCCN1C(=O)[C@H](CCCNC(=N)N)NS(=O)(=O)c1ccc(C(C)(C)C)cc1)C(=O)N1CCC[C@H]1C(=O)N[C@@H](CCC(=O)O)C(=O)N[C@@H](CCC(=O)O)C(=O)N[C@@H](Cc1ccc(O)cc1)C(=O)N[C@@H](CC(C)C)C(=O)N[C@@H](CCC(N)=O)C(=O)O [P3236], IC50 1 ± 0.5 nM. Against it:
- CC[C@H](C)[C@H](NC(=O)[C@H](CCC(N)=O)NC(=O)[C@@H]1CCCN1C(=O)[C@H](CCCNC(=N)N)NC(=O)[C@@H]1CCCN1C(=O)[C@H](C)NC(=O)[C@H](Cc1c[nH]cn1)NC(=O)[C@H](CO)NC(=O)CNC(=O)[C@H]1CCCCN1C(=O)[C@H](CCCNC(=N)N)NS(=O)(=O)c1ccc(C(C)(C)C)cc1)C(=O)N[C@@H](Cc1c[nH]cn1)C(=O)N[C@@H](CC(N)=O)C(=O)N[C@@H](CC(=O)O)C(=O)NCC(=O)N[C@@H](CC(=O)O)C(=O)N[C@@H](Cc1ccccc1)C(=O)N[C@@H](CCC(=O)O)C(=O)N[C@@H](CCC(=O)O)C(=O)N[C@H](C(=O)N1CCC[C@H]1C(=O)N[C@@H](CCC(=O)O)C(=O)N[C@@H](CCC(=O)O)C(=O)N[C@@H](Cc1ccc(O)cc1)C(=O)N[C@@H](CC(C)C)C(=O)N[C@@H](CCC(N)=O)C(=O)O)[C@@H](C)CC [P3210] — within error, 0.6 nM
- CC[C@H](C)[C@H](NC(=O)[C@H](CCC(=O)O)NC(=O)[C@H](CCC(=O)O)NC(=O)[C@H](Cc1ccccc1)NC(=O)[C@H](CC(=O)O)NC(=O)CNC(=O)[C@@H](NC(=O)[C@H](CC(=O)O)NC(=O)CNC(=O)[C@H](C)NC(=O)[C@H](CCC(N)=O)NC(=O)[C@H](CCCCN)NC(=O)[C@H](C)NC(=O)CNC(=O)CNC(=O)[C@H](CC(C)C)NC(=O)[C@H](Cc1c[nH]cn1)NC(=O)[C@H](Cc1c[nH]cn1)NC(=O)CNC(=O)[C@H]1CCCCN1C(=O)[C@H](CCCNC(=N)N)NS(=O)(=O)c1ccc(C(C)(C)C)cc1)C(C)C)C(=O)N1CCC[C@H]1C(=O)N[C@@H](CCC(=O)O)C(=O)N[C@@H](CCC(=O)O)C(=O)N[C@@H](Cc1ccc(O)cc1)C(=O)N[C@@H](CC(C)C)C(=O)N[C@@H](CCC(N)=O)C(=O)O [P3234] — 3.9-fold higher, 3.9 ± 0.8 nM
- CC[C@H](C)[C@H](NC(=O)[C@H](CCC(=O)O)NC(=O)[C@H](CCC(=O)O)NC(=O)[C@H](Cc1ccccc1)NC(=O)[C@H](CC(=O)O)NC(=O)CNC(=O)[C@H](CCCNC(=N)N)NC(=O)[C@H](CC(N)=O)NC(=O)[C@H](Cc1c[nH]cn1)NC(=O)[C@H](CO)NC(=O)[C@H](CCC(N)=O)NC(=O)CNC(=O)[C@H]1CCCCN1C(=O)[C@H](CCCNC(=N)N)NS(=O)(=O)c1ccc(C(C)(C)C)cc1)C(=O)N1CCC[C@H]1C(=O)N[C@@H](CCC(=O)O)C(=O)N[C@@H](CCC(=O)O)C(=O)N[C@@H](Cc1ccc(O)cc1)C(=O)N[C@@H](CC(C)C)C(=O)N[C@@H](CCC(N)=O)C(=O)O [P3238] — within error, 2 ± 1 nM
- CC[C@H](C)[C@H](NC(=O)[C@H](CCC(=O)O)NC(=O)[C@H](CCC(=O)O)NC(=O)[C@H](Cc1ccccc1)NC(=O)[C@H](CC(=O)O)NC(=O)CNC(=O)[C@H](CC(=O)O)NC(=O)[C@H](CC(N)=O)NC(=O)[C@H](Cc1c[nH]cn1)NC(=O)[C@H](CO)NC(=O)[C@H](CCC(N)=O)NC(=O)[C@@H]1CCCN1C(=O)[C@H](CCCCN)NC(=O)[C@@H]1CCCN1C(=O)[C@@H](NC(=O)CNC(=O)[C@H](CCC(=O)O)NC(=O)CNC(=O)[C@H](CC(=O)O)NC(=O)[C@@H](NC(=O)[C@H](Cc1ccccc1)NC(=O)[C@H](CCCNC(=N)N)NC(=O)[C@@H](N)C(C)C)[C@@H](C)O)[C@@H](C)O)C(=O)N1CCC[C@H]1C(=O)N[C@@H](CCC(=O)O)C(=O)N[C@@H](CCC(=O)O)C(=O)N[C@@H](Cc1ccc(O)cc1)C(=O)N[C@@H](CC(C)C)C(=O)N[C@@H](CCC(N)=O)C(=O)O [mini-hirudin 1] — 33-fold higher, 33 ± 3 nM
- CC[C@H](C)[C@H](N)C(=O)N[C@@H](CCCNC(=N)N)C(=O)N[C@@H](Cc1ccccc1)C(=O)N[C@H](C(=O)N[C@@H](CC(=O)O)C(=O)NCC(=O)N[C@@H](CCC(=O)O)C(=O)NCC(=O)N[C@H](C(=O)N1CCC[C@H]1C(=O)N[C@@H](CC(N)=O)C(=O)N1CCC[C@H]1C(=O)N[C@@H](CCC(=O)O)C(=O)N[C@@H](CO)C(=O)N[C@@H](Cc1c[nH]cn1)C(=O)N[C@@H](CC(N)=O)C(=O)N[C@@H](CC(N)=O)C(=O)NCC(=O)N[C@@H](CC(=O)O)C(=O)N[C@@H](Cc1ccccc1)C(=O)N[C@@H](CCC(=O)O)C(=O)N[C@@H](CCC(=O)O)C(=O)N[C@H](C(=O)N1CCC[C@H]1C(=O)N[C@@H](CCC(=O)O)C(=O)N[C@@H](CCC(=O)O)C(=O)N[C@@H](Cc1ccc(O)cc1)C(=O)N[C@@H](CC(C)C)C(=O)N[C@@H](CCC(N)=O)C(=O)O)[C@@H](C)CC)[C@@H](C)O)[C@@H](C)O [mini-hirudin 2] — 14-fold higher, 14 ± 1 nM
- CC[C@H](C)[C@H](N)C(=O)N[C@@H](CCCNC(=N)N)C(=O)N[C@@H](Cc1ccccc1)C(=O)N[C@H](C(=O)N[C@@H](CC(=O)O)C(=O)NCC(=O)N[C@@H](C)C(=O)N[C@@H](CCCCN)C(=O)N[C@H](C(=O)N[C@H](C(=O)N[C@@H](CCSC)C(=O)N[C@H](C(=O)N[C@@H](CS)C(=O)N[C@@H](CO)C(=O)N[C@@H](C)C(=O)N[C@@H](CO)C(=O)NCC(=O)N[C@@H](CC(=O)O)C(=O)N[C@@H](Cc1ccccc1)C(=O)N[C@@H](CCC(=O)O)C(=O)N[C@@H](CCC(=O)O)C(=O)N[C@H](C(=O)N1CCC[C@H]1C(=O)N[C@@H](CCC(=O)O)C(=O)N[C@@H](CCC(=O)O)C(=O)N[C@@H](Cc1ccc(O)cc1)C(=O)N[C@@H](CC(C)C)C(=O)N[C@@H](CCC(N)=O)C(=O)O)[C@@H](C)CC)[C@@H](C)O)[C@@H](C)O)C(C)C)[C@@H](C)O [mini-hirudin 3] — 10-fold higher, 10 ± 1 nM
